# In patent US20230240290A1, “USE OF (Z)-3-HEXENYL ESTERS AND METHOD FOR PROTECTING PLANTS AGAINST PESTS” (UNIVERSITAT POLITÈCNICA DE VALÈNCIA, priority 2020, published 2023):
# Tests used:
# [1] = system: PR1 (marker gene for the salicylic acid signaling pathway); assay: Transcriptional response of defense gene PR1 in tomato plants exposed to volatiles (laboratory); format: in vivo, Solanum lycopersicum cv. Moneymaker; conditions: intact tomato plants exposed 24 h; filter paper, 1:10,000 ester:methanol; n=8
# Protocol: Moneymaker tomato plants were used. Two weeks after seed germination, the seedlings were individually transplanted into pots (8×8×8 cm). The plants were kept at 25±2° C., with a constant relative humidity of 65%±5% and a 14:10 h (light:dark) photoperiod. Tomato plants that had not received any pesticide treatment at four weeks of age (about 20 cm tall) were used. All volatiles used were obtained from Sigma-Aldrich (St. Louis, Mo., USA). Each volatile was exposed by using a 2×2 cm piece of filter paper on which 10 μl of a solution containing the corresponding volatile at a concentration of 1:10,000 [(Z)-3-hexenyl ester:methanol] was impregnated as an emitting source of the corresponding volatile (Pérez-Hedo, M. et al. Biocontrol, 63: 203-213 (2018)).
# To activate a plant, two pieces of filter paper impregnated with the volatile were placed at the bottom of a 30×30×30 cm plastic cage (BugDorm-1 Insect Tents; MegaView Science Co., Ltd, Taichung, Taiwan) into which the plant was introduced. A control treatment was carried out in which the two pieces of filter paper were impregnated with 10 μl of methanol. Eight repetitions per treatment were performed. The plants of the treatments were kept exposed to the volatile without disturbing for 24 hours in separate and isolated climatic chambers to avoid any interference from the volatiles and were kept at 25±2° C., 65±10% RH, and a 14:10 h (L:D) photoperiod. […]
# The methodology followed for extracting and quantifying gene expression was described by Pérez-Hedo et al. Journal of Pest Science 3: 543-554 (2015). The primers used were forward primer: 5′-[…]-3′ (SEQ ID NO: 1) and reverse primer: 5′-[…]-3′ (SEQ ID NO: 2) for the quantification of PR1, forward primer: 5′-[…]-3′ (SEQ ID NO: 3) and reverse primer: 5′-[…]-3′ (SEQ ID NO: 4) for SI-PI-I, and forward primer: 5′-[…]-3′ (SEQ ID NO: 5) and reverse primer: 5′-[…]-3′ (SEQ ID NO: 6) for the SI-PI-II gene. […]
# [2] = system: PAL (salicylic acid pathway); assay: Transcriptional response of PAL in Carrizo citrange plants exposed to the volatile; format: in vivo; conditions: intact Carrizo citrange plants exposed 24 h; n=6
# Protocol: Two weeks after seed germination, the seedlings were individually transplanted into pots (8×8×8 cm). The plants were kept in a greenhouse with a plastic cover at approximate climatic conditions of 25±5° C., a relative humidity of 65%±5%, and a natural light photoperiod, about 14:10 h (light:dark). Carrizo citrange plants that had not received any pesticide treatment at 8 weeks of age (approximately 20 cm tall) were used. The volatile (Z)-3-hexenyl propanoate was obtained from Sigma-Aldrich (St. Louis, Mo., USA). The volatile was exposed by using a 2×2 cm piece of filter paper on which 10 μl of a solution containing the corresponding volatile at a concentration of 1:10,000 [(Z)-3-hexenyl propanoate:methanol] was impregnated as an emitting source of the corresponding volatile (Pérez-Hedo, M. et al. Biocontrol, 63: 203-213 (2018)). […]
# The methodology followed for the extraction and quantification of gene expression was described by Pérez-Hedo et al. Journal of Pest Science 3: 543-554 (2015). The primers used were forward primer: 5′-[…]-3′ (SEQ ID NO: 11) and reverse primer: 5′-[…]-3′ (SEQ ID NO: 12) for the quantification of LOX2, forward primer: 5′-[…]-3′ (SEQ ID NO: 13) and reverse primer: 5′-[…]-3′ (SEQ ID NO: 14) for PAL and forward primer: 5′-[…]-3′ (SEQ ID NO: 15) and reverse primer: 5′-[…]-3′ (SEQ ID NO: 16) for the NPR5 gene. […]
smiles,measurement,setting,value
CC/C=C\CCOC(=O)CC [(Z)-3-hexenyl propanoate],Transcriptional response of PR1 compared to the control,[1],significantly overexpressed
same,Transcriptional response of PAL compared to control,[2],significantly overexpressed
